Patent US9458120B2, “Phenoxypropanol derivative and pharmaceutical composition including the same” (KOREA INSTITUTE OF SCIENCE AND TECHNOLOGY, priority 2011, dated 2016)

How the values were obtained:
[1] = biological target: α1G T-type calcium channel (Homo sapiens, UniProt O43497); experiment: Assay for T-type calcium channel inhibition activity (FDSS6000 calcium imaging, KCl activation); assay type: cell-based; settings: 75 s pre-treatment then KCl 75 mM, HEK293 cells expressing α1G T-type calcium channel and Kir2.1
Sequence of α1G T-type calcium channel (O43497 whole entry): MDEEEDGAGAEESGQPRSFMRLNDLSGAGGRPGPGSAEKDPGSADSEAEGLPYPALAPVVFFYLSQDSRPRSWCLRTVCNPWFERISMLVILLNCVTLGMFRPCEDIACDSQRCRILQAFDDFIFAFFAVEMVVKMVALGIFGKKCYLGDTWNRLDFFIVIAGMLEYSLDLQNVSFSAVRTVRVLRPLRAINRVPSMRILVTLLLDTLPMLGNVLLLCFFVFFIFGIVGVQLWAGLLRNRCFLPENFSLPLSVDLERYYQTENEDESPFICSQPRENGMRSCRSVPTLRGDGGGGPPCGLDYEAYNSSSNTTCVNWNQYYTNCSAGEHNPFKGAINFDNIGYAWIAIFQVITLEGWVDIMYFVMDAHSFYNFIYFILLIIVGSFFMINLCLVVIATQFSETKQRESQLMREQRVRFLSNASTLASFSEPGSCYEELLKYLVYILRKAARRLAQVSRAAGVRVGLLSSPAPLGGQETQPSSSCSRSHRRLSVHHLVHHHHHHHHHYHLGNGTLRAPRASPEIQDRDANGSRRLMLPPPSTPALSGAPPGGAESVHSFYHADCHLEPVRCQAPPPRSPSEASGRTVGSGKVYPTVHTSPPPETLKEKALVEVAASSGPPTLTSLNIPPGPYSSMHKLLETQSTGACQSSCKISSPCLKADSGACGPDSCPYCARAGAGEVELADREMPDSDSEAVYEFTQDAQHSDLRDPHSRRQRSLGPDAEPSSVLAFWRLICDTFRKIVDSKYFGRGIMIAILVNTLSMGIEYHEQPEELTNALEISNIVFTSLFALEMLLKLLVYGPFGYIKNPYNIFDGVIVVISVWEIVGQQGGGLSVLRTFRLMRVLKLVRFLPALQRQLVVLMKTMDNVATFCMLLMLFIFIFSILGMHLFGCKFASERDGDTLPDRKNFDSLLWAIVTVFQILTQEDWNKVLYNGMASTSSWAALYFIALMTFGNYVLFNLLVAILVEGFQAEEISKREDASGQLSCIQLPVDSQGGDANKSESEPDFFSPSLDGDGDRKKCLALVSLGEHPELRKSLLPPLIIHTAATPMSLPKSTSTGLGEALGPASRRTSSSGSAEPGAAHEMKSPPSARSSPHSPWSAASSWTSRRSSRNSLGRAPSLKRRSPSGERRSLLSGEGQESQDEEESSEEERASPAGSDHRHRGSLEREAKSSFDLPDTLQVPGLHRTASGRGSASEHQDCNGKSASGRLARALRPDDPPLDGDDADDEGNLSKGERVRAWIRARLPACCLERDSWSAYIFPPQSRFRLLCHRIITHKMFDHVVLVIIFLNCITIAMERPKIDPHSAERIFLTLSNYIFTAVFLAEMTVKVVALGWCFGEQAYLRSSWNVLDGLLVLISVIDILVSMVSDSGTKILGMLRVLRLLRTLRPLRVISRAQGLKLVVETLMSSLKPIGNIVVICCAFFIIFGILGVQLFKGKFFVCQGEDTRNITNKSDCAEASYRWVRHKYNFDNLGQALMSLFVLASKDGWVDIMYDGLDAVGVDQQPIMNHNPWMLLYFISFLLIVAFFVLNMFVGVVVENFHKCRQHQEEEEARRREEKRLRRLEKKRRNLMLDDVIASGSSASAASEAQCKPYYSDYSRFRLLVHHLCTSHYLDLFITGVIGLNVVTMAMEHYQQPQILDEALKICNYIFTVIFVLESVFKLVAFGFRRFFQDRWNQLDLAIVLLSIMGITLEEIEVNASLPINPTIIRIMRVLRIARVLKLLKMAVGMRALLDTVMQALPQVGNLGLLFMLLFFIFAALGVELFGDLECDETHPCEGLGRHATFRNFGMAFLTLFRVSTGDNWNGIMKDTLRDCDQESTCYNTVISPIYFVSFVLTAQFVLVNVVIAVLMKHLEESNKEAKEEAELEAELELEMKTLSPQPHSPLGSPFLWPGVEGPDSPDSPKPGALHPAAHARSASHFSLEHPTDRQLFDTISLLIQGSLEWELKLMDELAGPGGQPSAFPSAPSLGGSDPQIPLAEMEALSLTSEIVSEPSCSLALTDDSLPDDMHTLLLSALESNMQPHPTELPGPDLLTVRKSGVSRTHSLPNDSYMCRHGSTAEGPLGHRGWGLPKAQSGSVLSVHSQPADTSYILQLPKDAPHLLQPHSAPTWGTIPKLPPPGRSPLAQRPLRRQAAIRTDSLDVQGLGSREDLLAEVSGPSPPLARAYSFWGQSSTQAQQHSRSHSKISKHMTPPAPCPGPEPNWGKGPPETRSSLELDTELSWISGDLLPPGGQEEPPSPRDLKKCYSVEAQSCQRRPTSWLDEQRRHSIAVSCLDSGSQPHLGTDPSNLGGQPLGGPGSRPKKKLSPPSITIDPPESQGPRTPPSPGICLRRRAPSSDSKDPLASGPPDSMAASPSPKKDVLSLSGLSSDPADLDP
Description: At 12-24 hours before the assay for T-type calcium channel activity, cells of HEK293 cell line (α1G cell line: KCTC 10519BP, GenBank, Korea Research Institute of Bioscience and Biotechnology) which stably express α1G T-type calcium channel and Kir2.1, were sub-cultured in a poly-L-lysine (0.05 mg/ml) treated 96-well plate with the density of 4×10^4 per a well using a 96-well cell dispenser (Titertek). On the day of assay, the 96-well plate to which the cells were attached were washed three times with a HEPES buffer solution (unit mM: 150 NaCl, 5 KCl, 1 MgCl2, 2 CaCl2, 10 HEPES, 10 glucose, pH 7.4) using a 96-well plate automatic washing device (Bio Tek), and then reacted with a HEPES buffer solution containing 5 μM fluo-3/AM and 0.001% (w/v) Pluronic F-127 at room temperature for 1 hour, to label with fluorescent dye, and then further washed twice with the HEPES buffer solution. Thereafter, at 10 minutes before the measurement using a FDSS6000 device, a washing with a HEPES buffer solution containing 10 mM CaCl2 was conducted once more, and the final volume was adjusted to 81 μl. Besides the above 96-well plate containing the cells, additional two 96-well drug plates were provided, in which the 96-well plates contained KCl (final concentration: 75 mM) for activating T-type calcium channel and a blocker drug, respectively.
Since most of cell-based HTS (High throughput screening) devices are equipped with a liquid application system for drug injection, but have no liquid sucking system, the blocker drug to be tested and KCl were respectively provided at the five-times higher concentration in 10 mM CaCl2 HEPES buffer solution at the amount of 27 μl, diluted five-times at the final cell plate volume of 135 μl, and then used in this test. In this Experimental Example, therefore, FDSS6000 (Hamamatsu Photonics) was used as an alternative to HTS device.
Specific FDSS6000 measurement conditions are as follows: After recording the reference value of 20 seconds, the change of intracellular calcium concentration which induced by pre-treatment of the drug (the prepared […]) for 75 seconds followed by administration of KCl was measured, in which the percentage (%) inhibition effect of the test drug was determined, through estimating the area of ratio value of 340/380 in the control without treatment of the test drug as 100%. As a reference drug, 10 μM of mibefradil was always used.
For accurate calcium-imagination, the light sources of 4 xenon lamps in FDSS6000 were radiated to make the cells exposed selectively to the excitation wavelength (340 nm and 380 nm) by computer-controlled filter wheel. Data was obtained at interval of each 1.23 second. The emitter fluorescence light inflow through a 515 nm long-pass filter was obtained as an average 340/380 ratio value for each well in the 96-wells by a cooled CCD camera and digital fluorescence analyzer in the device. All image data and analysis were obtained by using a FDSS6000-exclusive program provided by Hamamatsu Photonics, as described above.

TREK-1 channel = biological target: T1, TREK-1 channel (Rattus norvegicus, UniProt Q920B6); experiment: Assay for TREK channel inhibition activity (whole cell patch clamp recording, COS7 cell transfected with GFP-rTREK-1); assay type: cell-based; settings: COS-7, Table 3 (value ± spread); 101 μM [sic]; COS7 cells, GFP-rTREK-1, whole-cell patch clamp; read-out: block % at 101 μM
T1 construct: expressed in transfected cells; host or cells: COS7 (Korean Cell Line Bank), transient transfection with Effectene
T1 sequence (Q920B6 1-426): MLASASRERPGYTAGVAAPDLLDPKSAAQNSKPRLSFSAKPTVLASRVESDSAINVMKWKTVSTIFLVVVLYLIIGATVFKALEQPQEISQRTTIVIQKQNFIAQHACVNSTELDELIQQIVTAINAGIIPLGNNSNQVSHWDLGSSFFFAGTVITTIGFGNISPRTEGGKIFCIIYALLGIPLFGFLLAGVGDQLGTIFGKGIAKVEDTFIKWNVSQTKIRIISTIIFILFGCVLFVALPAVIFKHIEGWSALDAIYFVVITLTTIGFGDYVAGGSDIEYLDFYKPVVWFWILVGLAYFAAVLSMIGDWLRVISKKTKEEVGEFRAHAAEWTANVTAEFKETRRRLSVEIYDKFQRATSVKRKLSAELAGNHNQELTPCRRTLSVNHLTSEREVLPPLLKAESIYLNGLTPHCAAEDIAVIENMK
Method in brief: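 Whole-cell patch clamp was run on COS7 cells 24 h after transfection with GFP-rTREK-1, held at −70 mV, using a 1 s ramp from −100 to +100 mV. Current was taken as the difference between +100 and −100 mV values. Block % = 100 − (current after/before blocker) × 100.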

inhibition [1] [%] | inhibition at 101 µM (TREK-1 channel) [%] | SMILES
77.5 | 37.5 ± 5.31 | CC(C)Cc1cc(CNC(=O)CN2CCN(C[C@H](O)COc3ccc(F)cc3)CC2)nn1-c1ccccc1 [KKRE10214, (S)-2-(4-(3-(4-Fluorophenoxy)-2-hydroxypropyl)piperazin-1-yl)-N-((5-isobutyl-1-phenyl-1H-pyrazol-3-yl)methyl)acetamide]
80.9 | 82.1 ± 3.81 | CC(C)Cc1cc(CNC(=O)CN2CCN(C[C@H](O)COc3ccc(C(F)(F)F)cc3)CC2)nn1-c1ccccc1 [KKRE10215, (S)-2-(4-(2-Hydroxy-3-(4-(trifluoromethyl)phenoxy)propyl)piperazin-1-yl)-N-((5-isobutyl-1-phenyl-1H-pyrazol-3-yl)methyl)acetamide]
77.4 | 71.4 ± 10.8 | Cc1ccc(F)cc1-n1nc(CNC(=O)CN2CCN(C[C@@H](O)COc3ccc(C(F)(F)F)cc3)CC2)cc1CC(C)C [KKRE10216, (R)-N-((1-(5-fluoro-2-methylphenyl)-5-isobutyl-1H-pyrazol-3-yl)methyl)-2-(4-(2-hydoxy-3-(4-(trifluoromethyl)phenoxy)propyl)piperazin-1-yl)acetamide]
75.7 | 50.1 ± 10.7 | CC(C)Cc1cc(CNC(=O)CN2CCN(C[C@@H](O)COc3ccc(C(F)(F)F)cc3)CC2)nn1-c1ccc(F)cc1 [KKRE10217, (R)-N-((1-(4-fluorophenyl)-5-isobutyl-1H-pyrazol-3-yl)methyl)-2-(4-(2-hydroxy-3-(4-(trifluoromethyl)phenoxy)propyl)piperazin-1-yl)acetamide]
73.5 | 76.1 ± 5.79 | CC(C)Cc1cc(CNC(=O)CN2CCN(C[C@@H](O)COc3ccc(C(F)(F)F)cc3)CC2)nn1-c1cc(Cl)cc(Cl)c1 [KKRE10218, (R)-N-((1-(3,5-dichlorophenyl)-5-isobutyl-1H-pyrazol-3-yl)methyl)-2-(4-(2-hydroxy-3-(4-(trifluoromethyl)phenoxy)propyl)piperazin-1-yl)acetamide]
74.1 | 57 ± 6.08 | CC(C)Cc1cc(CNC(=O)CN2CCN(C[C@H](O)COc3ccc(C(F)(F)F)cc3)CC2)nn1-c1ccc(F)cc1 [KKRE10219, (S)-N-((1-(4-fluorophenyl)-5-isobutyl-1H-pyrazol-3-yl)methyl)-2-(4-(2-hydroxy-3-(4-(trifluoromethyl)phenoxy)propyl)piperazin-1-yl)acetamide]
35.8 | 41.4 ± 12.7 | CC(C)Cc1cc(CNC(=O)CN2CCN(C[C@H](O)COc3ccc(C(F)(F)F)cc3)CC2)nn1-c1cc(Cl)cc(Cl)c1 [KKRE10220, (S)-N-((1-(3,5-dichlorophenyl)-5-isobutyl-1H-pyrazol-3-yl)methyl)-2-(4-(2-hydroxy-3-(4-(trifluoromethyl)phenoxy)propyl)piperazin-1-yl)acetamide]
68.9 | 83.1 ± 4.99 | Cc1ccc(F)cc1-n1nc(CNC(=O)CN2CCN(C[C@H](O)COc3ccc(C(F)(F)F)cc3)CC2)cc1CC(C)C [KKRE10221, (S)-N-((1-(5-fluoro-2-methylphenyl)-5-isobutyl-1H-pyrazol-3-yl)methyl)-2-(4-(2-hydroxy-3-(4-(trifluoromethyl)phenoxy)propyl)piperazin-1-yl)acetamide]
79.2 | 51.2 ± 12.5 | Cc1ccccc1-n1nc(CNC(=O)CN2CCN(C[C@H](O)COc3ccc(C(F)(F)F)cc3)CC2)cc1CC(C)C [KKRE10222, (S)-2-(4-(2-Hydroxy-3-(4-(trifluoromethyl)phenoxy)propyl)piperazin-1-yl)-N-((5-isobutyl-1-o-tolyl-1H-pyrazol-3-yl)methyl)acetamide]
63.4 | 87.6 ± 2.43 | CC(C)Cc1cc(CNC(=O)CN2CCN(C[C@@H](O)COc3ccc(F)cc3)CC2)nn1-c1cc(Cl)cc(Cl)c1 [KKRE10223, (R)-N-((1-(3,5-Dichlorophenyl)-5-isobutyl-1H-pyrazol-3-yl)methyl)-2-(4-(3-(4-fluorophenoxy)-2-hydroxypropyl)piperazin-1-yl)acetamide]
77.8 | 45.1 ± 3.6 | Cc1ccc(F)cc1-n1nc(CNC(=O)CN2CCN(C[C@@H](O)COc3ccc(F)cc3)CC2)cc1CC(C)C [KKRE10224, (R)-N-((1-(5-Fluoro-2-methylphenyl)-5-isobutyl-1H-pyrazol-3-yl)methyl)-2-(4-(3-(4-fluorophenoxy)-2-hydroxypropyl)piperazin-1-yl)acetamide]
81.1 | 13.1 ± 6.19 | Cc1ccccc1-n1nc(CNC(=O)CN2CCN(C[C@@H](O)COc3ccc(F)cc3)CC2)cc1CC(C)C [KKRE10225, (R)-2-(4-(3-(4-Fluorophenoxy)-2-hydroxypropyl)piperazin-1-yl)-N-((5-isobutyl-1-o-tolyl-1H-pyrazol-3-yl)methyl)acetamide]
78.8 | 18.8 ± 7.78 | CC(C)Cc1cc(CNC(=O)CN2CCN(C[C@@H](O)COc3ccc(F)cc3)CC2)nn1-c1ccc(F)cc1 [KKRE10226, (R)-2-(4-(3-(4-Fluorophenoxy)-2-hydroxypropyl)piperazin-1-yl)-N-((1-(4-fluorophenyl)-5-isobutyl-1H-pyrazol-3-yl)methyl)acetamide]
74.7 | 69.8 ± 4.78 | Cc1ccccc1-n1nc(CNC(=O)CN2CCN(C[C@H](O)COc3ccc(F)cc3)CC2)cc1CC(C)C [KKRE10227, (S)-2-(4-(3-(4-Fluorophenoxy)-2-hydroxypropyl)piperazin-1-yl)-N-((5-isobutyl-1-o-tolyl-1H-pyrazol-3-yl)methyl)acetamide]
73.2 | 58.6 ± 4.35 | CC(C)Cc1cc(CNC(=O)CN2CCN(C[C@H](O)COc3ccc(F)cc3)CC2)nn1-c1ccc(F)cc1 [KKRE10228, (S)-2-(4-(3-(4-Fluorophenoxy)-2-hydroxypropyl)piperazin-1-yl)-N-((1-(4-fluorophenyl)-5-isobutyl-1H-pyrazol-3-yl)methyl)acetamide]
77.6 | 74.1 ± 2.75 | Cc1ccc(F)cc1-n1nc(CNC(=O)CN2CCN(C[C@H](O)COc3ccc(F)cc3)CC2)cc1CC(C)C [KKRE10229, (S)-N-((1-(5-Fluoro-2-methylphenyl)-5-isobutyl-1H-pyrazol-3-yl)methyl)-2-(4-(3-(4-fluorophenoxy)-2-hydroxypropyl)piperazin-1-yl)acetamide]
60 | 78.1 ± 2.95 | CC(C)Cc1cc(CNC(=O)CN2CCN(C[C@H](O)COc3ccc(F)cc3)CC2)nn1-c1cc(Cl)cc(Cl)c1 [KKRE10230, (S)-N-((1-(3,5-Dichlorophenyl)-5-isobutyl-1H-pyrazol-3-yl)methyl)-2-(4-(3-(4-fluorophenoxy)-2-hydroxypropyl)piperazin-1-yl)acetamide]
